The source of these data is patent US7723523B2, “Tetrahydropyridothiophenes” (4SC AG, priority 2004, dated 2010).

Test [1] deals with RKO colon adenocarcinoma cells (RKOp27) arrested by expression of ectopic p27Kip1. Kind of test: Alamar Blue cell viability assay on RKOp27 cells arrested by Ponasterone A-induced p27Kip1 (cell cycle specific mode of action). Conditions: Homo sapiens, RKOp27, 72 h, cells arrested by p27Kip1 induced with 10 μM Ponasterone A, 72 hours incubation, read-out: IC50 RKO p27 arrested. The class given is cell-based. The essentials:
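Viability measured by Alamar Blue fluorescence (ex 544, em 590 nm) after 72 h, 37 °C compound exposure in quadruplicate, normalized to untreated cells as 100%. Cells were p27Kip1-arrested RKOp27, induced with 10 μM Ponasterone A at seeding; compound added 24 h later.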
(In general: The colour change of resazurin is a common sign of viable cells or microbes.)

Test [2] has as its system RKO (RKOp27) human colon adenocarcinoma cells. Kind of test: Alamar Blue cell viability assay, anti-proliferative/cytotoxic activity on proliferating RKOp27 cells. The class given is cell-based. Conditions: absence of Ponasterone A, 72 hours incubation, read-out: IC50 RKO p27 proliferating. In a few lines: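 RKOp27 subclone of RKO cells, 4000/well in DMEM with 10% FCS, was treated 24 h after seeding with semi-log compound dilutions in quadruplicate for 72 h at 37 °C, 5% CO2. Alamar Blue fluorescence (ex 544/em 590 nm) was read as % viability of untreated cells, and IC50 was taken from concentration-effect curves.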

What is called IC50 is the concentration at which inhibition is half-maximal.

Structures are written as SMILES.

Take `CCOC(=O)N1CCc2c(sc(NC(=O)/C=C/c3cc4ccccc4o3)c2C#N)C1` [Example 84, 2-[(E)-3-Benzofuran-2-yl-allanoylamino]-3-cyano-4,7-dihydro-5H-thieno[2,3-c]pyridine-6-carboxylic acid ethyl ester]: the IC50 in test [1] was at least 50 µM; in test [2] it was at most 0.5 µM.

As to `CCOC(=O)N1CCc2c(sc(NC(=O)/C=C/c3cccc(C)c3C)c2C#N)C1` [Example 86, 3-Cyano-2-[(E)-3-(2,3-dimethyl-phenyl)-allanoylamino]-4,7-dihydro-5H-thieno[2,3-c]pyridine-6-carboxylic acid ethyl ester], the IC50 in test [1] is at least 100 µM; in test [2] it was at most 2 µM.

On to `N#Cc1c(NC(=O)/C=C/c2ccccc2)sc2c1CCN(C(=O)OCC(O)CO)C2` (stereo not shown) [Example 128, 3-Cyano-2-((E)-3-phenyl-allanoylamino)-4,7-dihydro-5H-thieno[2,3-c]pyridine-6-carboxylic acid 2,3-dihydroxy-propyl ester], for which the results for the IC50 in test [1] and in test [2] were at least 100 µM and at most 2 µM, respectively.

For the compound `N#Cc1c(NC(=O)/C=C/c2ccccc2)sc2c1CCN(C(=O)CCc1cccnc1)C2` [Example 185, (E)-N-[3-Cyano-6-(3-pyridin-3-yl-propanoyl)-4,5,6,7-tetrahydro-thieno[2,3-c]pyridin-2-yl]-3-phenyl-acrylamide], the IC50 was at least 100 µM in test [1] and at most 2 µM in test [2].

Regarding `CCCCCSC(=O)N1CCc2c(sc(NC(=O)/C=C/c3ccccc3)c2C#N)C1` [Example 49, 3-Cyano-2-((E)-3-phenyl-allanoylamino)-4,7-dihydro-5H-thieno[2,3-c]pyridine-6-carbothioic acid S-pentyl ester], the results for the IC50 in test [1] and in test [2] were at least 100 µM and at most 2 µM, respectively.

For the compound `CCOc1ccccc1/C=C/C(=O)Nc1sc2c(c1C#N)CCN(C(=O)COCCOC)C2` [Example 217, (E)-N-{3-Cyano-6-[2-(2-methoxy-ethoxy)-ethanoyl]-4,5,6,7-tetrahydro-thieno[2,3-c]pyridin-2-yl}-3-(2-ethoxy-phenyl)-acrylamide], the IC50 in test [1] was at least 100 µM; in test [2] it was at most 2 µM.

`N#Cc1c(NC(=O)/C=C/c2ccccc2)sc2c1CCN(C(=O)Cc1cccnc1)C2` [Example 183, (E)-N-[3-Cyano-6-(2-pyridin-3-yl-ethanoyl)-4,5,6,7-tetrahydro-thieno[2,3-c]pyridin-2-yl]-3-phenyl-acrylamide]: the results for the IC50 in test [1] and in test [2] were at least 100 µM and at most 2 µM, respectively.

`CCNC(=O)N1CCc2c(sc(NC(=O)/C=C/c3cccnc3)c2C#N)C1` [Example 38, 3-Cyano-2-((E)-3-pyridin-3-yl-allanoylamino)-4,7-dihydro-5H-thieno[2,3-c]pyridine-6-carboxylic acid ethylamide]: the values for the IC50 in test [1] and in test [2] were above 100 µM and at most 2 µM, respectively.

In the case of `N#Cc1c(NC(=O)/C=C/c2ccccc2)sc2c1CCN(C(=O)n1ccnc1)C2` [Example 53, (E)-N-[3-Cyano-6-(1-imidazol-1-yl-methanoyl)-4,5,6,7-tetrahydro-thieno[2,3-c]pyridin-2-yl]-3-phenyl-acrylamide], the IC50 in test [1] was at least 100 µM; in test [2], at most 2 µM.

Regarding `N#Cc1c(NC(=O)/C=C/c2cccnc2)sc2c1CCN(C(=O)OC1CCCCC1)C2` [Example 168, 3-Cyano-2-((E)-3-pyridin-3-yl-allanoylamino)-4,7-dihydro-5H-thieno[2,3-c]pyridine-6-carboxylic acid cyclohexyl ester], the IC50 in test [1] was at least 50 µM; in test [2] it was at most 0.5 µM.

Turning to `CCOC(=O)N1CCc2c(sc(NC(=O)/C=C/c3ccc(F)cc3C)c2C#N)C1` [Example 89, 3-Cyano-2-[(E)-3-(4-fluoro-2-methyl-phenyl)-allanoylamino]-4,7-dihydro-5H-thieno[2,3-c]pyridine-6-carboxylic acid ethyl ester], the results for the half-maximal inhibitory concentration (IC50) in test [1] and in test [2] were at least 100 µM and at most 2 µM, respectively.
